Source: patent publication US20230145793A1, “SUBSTITUTED PYRIMIDINE OR PYRIDINE AMINE DERIVATIVE, COMPOSITION THEREOF, AND MEDICAL USE THEREOF” (SHANGHAI HAIYAN PHARMACEUTICAL TECHNOLOGY CO., LTD., priority 2020, published 2023)
Like-named read-outs stand apart in the source and are kept apart here.

Columns and labels:
A2A receptor [1] = molecular target: T1, A2A receptor (Homo sapiens, UniProt P29274); assay: Test 2: inhibitory activity to the A2A receptor, cAMP HTRF in CHO-K1/ADORA2A/Gα15 cells, NECA 1 uM; format: cell-based
T1 construct: host or cells: CHO-K1 (co-expressing Gα15)
T1 sequence (P29274 whole entry): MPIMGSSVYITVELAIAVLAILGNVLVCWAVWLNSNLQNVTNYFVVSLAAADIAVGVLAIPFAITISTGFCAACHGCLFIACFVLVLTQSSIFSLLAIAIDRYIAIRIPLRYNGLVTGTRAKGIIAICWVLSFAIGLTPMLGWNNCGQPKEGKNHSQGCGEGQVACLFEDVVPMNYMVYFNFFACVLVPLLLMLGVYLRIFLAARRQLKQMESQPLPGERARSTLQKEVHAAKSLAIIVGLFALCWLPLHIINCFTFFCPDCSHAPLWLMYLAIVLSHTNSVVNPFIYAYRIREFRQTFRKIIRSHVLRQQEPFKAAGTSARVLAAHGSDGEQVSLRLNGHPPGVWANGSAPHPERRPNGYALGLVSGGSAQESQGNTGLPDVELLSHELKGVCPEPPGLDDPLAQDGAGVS
Procedure: (§1) Test 2: Inhibitory Activities to the A2A Receptor and the A2B Receptor
(§2) Screening procedure was as follows:
(§3) 1. The cell density was adjusted with a serum-free medium to 6×10^5 cells/mL.
(§4) 3. The cells were placed still and cultured in an incubator at 37° C. for 30 min.
(§5) 4. 5 μL of cAMP-d2 and 5 μL of cAMP-ab (Cisbio, 62AM4PEB) were added in sequence.
(§6) 5. The 384-well plate was placed in dark at the room temperature for 1 h.
(§7) 6. The plate was read (Victor X5, PerkinElmer), data were analyzed by XLfit nonlinear regression, and IC50 values of the compounds were calculated.

A2B receptor [2] = molecular target: T2, A2B receptor (Homo sapiens, UniProt P29275); assay: Test 2: inhibitory activity to the A2B receptor, cAMP HTRF in CHO-K1/ADORA2B/Gα15 cells, NECA 0.1 uM; format: cell-based
T2 construct: host or cells: CHO-K1 (co-expressing Gα15)
T2 sequence (P29275 1-332): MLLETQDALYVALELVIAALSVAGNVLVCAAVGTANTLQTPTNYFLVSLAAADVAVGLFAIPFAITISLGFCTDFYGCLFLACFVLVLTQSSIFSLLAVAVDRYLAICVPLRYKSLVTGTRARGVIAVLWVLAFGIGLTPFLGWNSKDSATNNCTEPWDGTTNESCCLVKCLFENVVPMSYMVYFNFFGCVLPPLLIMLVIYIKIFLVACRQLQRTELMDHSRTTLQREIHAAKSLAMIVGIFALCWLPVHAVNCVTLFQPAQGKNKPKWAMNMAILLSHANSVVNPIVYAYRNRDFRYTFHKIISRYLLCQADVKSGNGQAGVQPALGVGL
Procedure: as §1, §2, §3, §4, §5, §6, §7

A2A receptor [3] = molecular target: T1, A2A receptor; assay: Test 1: inhibitory activity to the A2A receptor, cAMP HTRF in CHO-K1/ADORA2A/Gα15 cells, NECA 50 nM; format: cell-based
Procedure: (§8) Test 1: Inhibitory Activities to the A2A Receptor and the A2B Receptor CHO-K1/ADORA2A/Gα15 (GenScript, M00246) and CHO-K1/ADORA2B/Gα15 (GenScript, M00329) cells were cultured in a Ham's F-12 (Gibco, 31765092) medium containing 10% FBS, Zeocin (200 ug/mL), and Hygromycin B (100 ug/mL), or containing 10% FBS, G418 (400 ug/mL), and Hygromycin B (100 ug/mL) under culture conditions specified in the corresponding instruction. Screening procedure was as follows: 1. The cell density was adjusted with a serum-free medium to 6×10^5 cells/mL. 2. 5 uL of cell solution, 2.5 μL of NECA (Sigma, 119140-10MG), and 2.5 μL of compound solution were placed into each well of a 384-well plate (Greiner Bio-One, 784075) in sequence, the final concentration of NECA was 50 nM (CHO-K1/ADORA2A) or 10 nM (CHO-K1/ADORA2B), and the compound solution was subjected to 3-fold dilution from the final concentration of 3 uM. 3. The cells were placed still and cultured in an incubator at 37° C. for 30 min. 4. 5 μL of cAMP-d2 and 5 μL of cAMP-ab (Cisbio, 62AM4PEB) were added in sequence. 5. The 384-well plate was placed in dark at the room temperature for 1 h. 6. The plate was read (Victor X5, PerkinElmer), data were analyzed by XLfit nonlinear regression, and IC50 values of the compounds were calculated.

A2B receptor [4] = molecular target: T2, A2B receptor; assay: Test 1: inhibitory activity to the A2B receptor, cAMP HTRF in CHO-K1/ADORA2B/Gα15 cells, NECA 10 nM; format: cell-based
Procedure: as §8

[5] = Test 3: in-vivo pharmacokinetics test in mice (plasma, LC/MS/MS); conditions: mouse, male ICR mice; for clearance: read-out: Clearance rate CLz
Procedure: Test 3: In-Vivo Pharmacokinetics Test
Mice were respectively administrated with the compound of the present disclosure by intravenous injection or intragastric administration, and the concentration of the drug in the plasma at different time points was determined by LC/MS/MS to explore pharmacokinetic behavior of the compound of the present disclosure in the mouse so as to evaluate the pharmacokinetic characteristics of the compound.
Experimental animals: healthy adult male ICR mice (weight: 25 to 40 g, 12 mice, mice in the intravenous injection group had free access to water and food, and mice in the intragastric administration group fasted overnight and had free access to water and food 4 h after administration), provided by Beijing Vital River Laboratory Animal Co., Ltd.
Administration method and dosage: before administration, animals that met the experimental requirements were selected, weighed, and marked. The ICR mice were subjected to tail vein administration (2 mg/kg, 5% DMSO, pH=4.5, 20% Captisol) or intragastric administration (10 mg/kg, 5% DMSO, pH=4.5, 20% Captisol).
Blood sample collection: before blood sample collection, each mouse was tied, and about 100 μL of blood was collected from each mouse subjected to administration at a preset blood collection time point through the jugular vein (for the mice subjected to intravenous administration: blood was collected from each mouse at a total of 9 time points, i.e., 0.083 h, 0.25 h, 0.5 h, 1 h, 2 h, 4 h, 6 h, 7.5 h, and 24 h after administration; and for the mice subjected to intragastric administration: blood was collected from each mouse at a total of 9 time points, i.e., 0.083 h, 0.25 h, 0.5 h, 1 h, 2 h, 4 h, 6 h, 7.5 h, and 24 h after administration). The blood was transferred to a test tube (1.5 mL) containing K2EDTA and centrifuged for 4 min (8,000 rpm, 4° C.) to separate out plasma, and the whole process was completed within 15 min after blood collection. All samples were stored in a refrigerator at −20° C. before sample analysis. The concentration of the drug was determined by LC/MS/MS.
Pharmacokinetic property parameters of the compounds of some examples of the present disclosure in the mice under the conditions of same dosage and intravenous administration are shown in Table 3:
Pharmacokinetic property parameters of the compounds of some examples of the present disclosure in the mice under the conditions of same dosage and intragastric administration are shown in Table 4: […]

[6] = intravenous (tail vein) 2 mg/kg, read-out: Area under the curve AUC0-t
[7] = intravenous (tail vein) 2 mg/kg
[8] = po, intragastric administration 10 mg/kg
[9] = po, intragastric administration 10 mg/kg, read-out: Area under the curve AUClast

Row | SMILES | IC50 (A2A receptor [1]) | IC50 (A2B receptor [2]) | IC50 (A2A receptor [3]) | IC50 (A2B receptor [4]) | AUC(0-t) [5, 6] | clearance [5, 7] | Cmax [5, 8] | AUC(0-t) [5, 9]
1 | Cc1c(C#N)cccc1-c1cc(-c2cn(Cc3cccc(C(C)(C)O)n3)nn2)nc(N)n1 [Compound D1, reference compound] | 0.065 µM | 0.075 µM |  |  |  |  |  | 
2 | Cc1c(C#N)cccc1-c1nc(N)c(Cl)c(-c2cn(Cc3cc(C(C)(C)O)n(C)n3)nn2)n1 [Compound L-10] |  |  | 0.004 µM | 0.001 µM | 2740 ng·h/mL | 12.1 mL/min/kg | 12600 ng/mL | 18000 ng·h/mL
3 | Cc1c(C#N)cccc1-c1nc(N)c(F)c(-c2cn(Cc3ccn(CC(F)F)n3)nn2)n1 [Compound L-44] | 0.022 µM | 0.064 µM | 0.001 µM | 0.004 µM |  |  |  | 
4 | Cc1c(C#N)cccc1-c1nc(N)c(F)c(-c2cn(Cc3ccn(C)n3)nn2)n1 [Compound L-67] |  |  | 0.003 µM | 0.007 µM | 2310 ng·h/mL | 14.2 mL/min/kg | 5720 ng/mL | 17300 ng·h/mL
5 | Cc1c(C#N)cccc1-c1nc(N)c(F)c(-c2cn(Cc3ccn(C4CCN(C)C4)n3)nn2)n1 [Compound L-90] |  |  | 0.005 µM | 0.029 µM |  |  |  | 
6 | Cc1c(C#N)cccc1-c1nc(N)c(F)c(-c2cn(Cc3cc(C4CC4)n(C)n3)nn2)n1 [Compound L-92] |  |  | 0.011 µM | 0.005 µM |  |  |  | 
7 | Cc1c(C#N)cccc1-c1nc(N)c(F)c(-c2cn(Cc3nc(C(C)(C)O)ccc3O)nn2)n1 [Compound L-94] | 0.016 µM | 0.038 µM |  |  |  |  |  | 
8 | Cc1c(C#N)cccc1-c1nc(N)c(F)c(-c2cn(Cc3ccn(CC#N)n3)nn2)n1 [Compound L-97] |  |  | 0.006 µM | 0.005 µM |  |  |  | 

Second part, the molecule after the results:

Row | IC50 (A2A receptor [1]) | IC50 (A2B receptor [2]) | IC50 (A2A receptor [3]) | IC50 (A2B receptor [4]) | AUC(0-t) [5, 6] | clearance [5, 7] | Cmax [5, 8] | AUC(0-t) [5, 9] | SMILES
9 | 0.024 µM | 0.062 µM | 0.001 µM | 0.003 µM |  |  |  |  | Cc1c(C#N)cccc1-c1nc(N)c(F)c(-c2cn(Cc3cccc(C(C)(C)O)n3)nn2)n1 [Compound L-1]
10 |  |  | < 0.001 µM | 0.004 µM | 3600 ng·h/mL | 9.12 mL/min/kg | 15900 ng/mL | 22200 ng·h/mL | Cc1c(C#N)cccc1-c1nc(N)c(Cl)c(-c2cn(Cc3cccc(C(C)(C)O)n3)nn2)n1 [Compound L-3]
11 |  |  | 0.001 µM | 0.001 µM | 4680 ng·h/mL | 6.97 mL/min/kg | 6790 ng/mL | 23800 ng·h/mL | Cc1c(C#N)cccc1-c1nc(N)c(Cl)c(-c2cn(Cc3ccn(C)n3)nn2)n1 [Compound L-9]
12 |  |  | < 0.001 µM | 0.001 µM | 2510 ng·h/mL | 13.3 mL/min/kg | 8980 ng/mL | 14800 ng·h/mL | Cc1c(C#N)cccc1-c1nc(N)c(F)c(-c2cn(Cc3ccn(C4CC4)n3)nn2)n1 [Compound L-32]
13 | 0.018 µM | 0.05 µM | 0.001 µM | 0.002 µM | 2590 ng·h/mL | 12.7 mL/min/kg | 7210 ng/mL | 13300 ng·h/mL | Cc1c(C#N)cccc1-c1nc(N)c(F)c(-c2cn(Cc3ccn(CCF)n3)nn2)n1 [Compound L-38]
14 | 0.011 µM | 0.068 µM | < 0.001 µM | 0.005 µM |  |  |  |  | Cc1c(C#N)cccc1-c1nc(N)c(F)c(-c2cn(Cc3ccn(C4CCOCC4)n3)nn2)n1 [Compound L-89]
15 |  |  | < 0.001 µM | 0.004 µM |  |  |  |  | Cc1c(C#N)cccc1-c1nc(N)c(Cl)c(-c2cn(Cc3ccn(C4COC4)n3)nn2)n1 [Compound L-93]
